Assay results taken from patent US20250368609A1, “TRIAZINANE COMPOUND AND COMPOSITION CONTAINING SAME” (SUMITOMO CHEMICAL COMPANY, LIMITED, priority 2022, published 2025).

Legend:
[1] = test system: waterhemp (Amaranthus tuberculatus=A. rudis); assay: Test method 3: upland field, post-emergence foliar application test, herbicidal efficacy against waterhemp; assay type: in vivo; conditions: scale 0 to 10
velvetleaf = assay: Test method 3: upland field, post-emergence foliar application test, herbicidal efficacy against velvetleaf; assay type: in vivo, Abutilon theophrasti; design: key: if there is no or almost no difference in the state of emergence or growth of test weeds at the time of investigation as compared with that of test weeds in an untreated control, the evaluation of the herbicidal efficacy is classified as “0”; if the test weeds are completely withered or emergence or growth of the test weeds is suppressed, the evaluation of the herbicidal efficacy is classified as “10”; conditions: scale 0 to 10
[2] = test system: velvetleaf (Abutilon theophrasti); assay: Test method 1: upland field, post-emergence foliar application test (velvetleaf); assay type: in vivo; design: key: if there is no or almost no difference in the state of emergence or growth of test weeds at the time of investigation as compared with that of test weeds in an untreated control, the evaluation of the herbicidal efficacy is classified as “0”; if the test weeds are completely withered or emergence or growth of the test weeds is suppressed, the evaluation of the herbicidal efficacy is classified as “10”; conditions: scale 0 to 10
Excerpt: Next, the herbicidal efficacy of the compound of the present invention is shown by test examples. In the following test examples, the evaluation of the herbicidal efficacy is classified into 0 to 10, where if there is no or almost no difference in the state of emergence or growth of test weeds at the time of investigation as compared with that of test weeds in an untreated control, the evaluation of the herbicidal efficacy is classified as “0”, and if the test weeds are completely withered or emergence or growth of the test weeds is suppressed, the evaluation of the herbicidal efficacy is classified as “10”. A pot is filled with a commercially available culture soil, and seeds of velvetleaf (Abutilon theophrasti) are sown in the pot. Thereafter, the seeds are covered with approximately 0.5 cm of soil, and each of the seeds is cultivated in a greenhouse for 13 days. Next, a predetermined amount of the test compound is dissolved in 1 mL of a DMF solution containing 2% of an adjuvant, and 18 mL of water is added thereto, thereby preparing a diluent. The diluent is uniformly sprayed over plants so as to give the plants a predetermined treatment amount. Thereafter, the plants are cultivated in the greenhouse for 20 days, and herbicidal efficacy is evaluated.

corn (Zea mays) = conditions: in vivo, 7 days

C=CCOC(=O)C1(Oc2cc(-n3c(=O)cc(C(F)(F)F)n(C)c3=O)c(F)cc2Cl)CC1 [Compound B-1]
Herbicidal efficacy Waterhemp 1 WAT ([1]; dosage 16 gAI/ha): 9
Herbicidal efficacy Waterhemp 1 WAT ([1]; dosage 32 gAI/ha): 9
Herbicidal efficacy Velvetleaf 1 WAT (velvetleaf; dosage 16 gAI/ha): 10
Herbicidal efficacy Velvetleaf 1 WAT (velvetleaf; dosage 32 gAI/ha): 10

CCOC(=O)COC(=O)C1(Oc2cc(-n3c(=O)cc(C(F)(F)F)n(C)c3=O)c(F)cc2Cl)CC1 [Compound B-2]
Herbicidal efficacy Waterhemp 1 WAT ([1]; dosage 8 gAI/ha): 9
Herbicidal efficacy Waterhemp 1 WAT ([1]; dosage 16 gAI/ha): 9
Herbicidal efficacy Velvetleaf 1 WAT (velvetleaf; dosage 8 gAI/ha): 10
Herbicidal efficacy Velvetleaf 1 WAT (velvetleaf; dosage 16 gAI/ha): 10

Cn1c(=S)n(C)c(=O)n(-c2cc(OC3CCCC3)c(Cl)cc2F)c1=O [Compound C-1]
Herbicidal efficacy Velvetleaf 3 WAT ([2]; dosage 1 gAI/ha): 1
Herbicidal efficacy Velvetleaf 3 WAT ([2]; dosage 2 gAI/ha): 1

C=CCOC(=O)C(C)Oc1cc(-n2c(=O)n(C)c(=S)n(C)c2=O)c(F)cc1Cl (stereo not shown) [Compound C-2]
Herbicidal efficacy Velvetleaf 3 WAT ([2]; dosage 1 gAI/ha): 1
Herbicidal efficacy Velvetleaf 3 WAT ([2]; dosage 2 gAI/ha): 1

CCOCCOC(=O)C(C)Oc1cc(-n2c(=O)n(C)c(=S)n(C)c2=O)c(F)cc1Cl (stereo not shown) [Compound C-3]
Herbicidal efficacy Velvetleaf 3 WAT ([2]; dosage 1 gAI/ha): 1
Herbicidal efficacy Velvetleaf 3 WAT ([2]; dosage 2 gAI/ha): 1

C=CCOC(=O)C1(Oc2cc(-n3c(=O)n(C)c(=S)n(C)c3=O)c(F)cc2Cl)CC1 [Compound I-5]
Herbicidal efficacy Velvetleaf 3 WAT ([2]; dosage 1 gAI/ha): 10
Herbicidal efficacy Velvetleaf 3 WAT ([2]; dosage 2 gAI/ha): 10
Herbicidal efficacy Waterhemp 1 WAT ([1]; dosage 16 gAI/ha): 9
Herbicidal efficacy Waterhemp 1 WAT ([1]; dosage 32 gAI/ha): 9
Herbicidal efficacy Velvetleaf 1 WAT (velvetleaf; dosage 16 gAI/ha): 10
Herbicidal efficacy Velvetleaf 1 WAT (velvetleaf; dosage 32 gAI/ha): 10
Phytotoxicity Corn 1 WAT (corn (Zea mays)): 1

CCOC(=O)COC(=O)C1(Oc2cc(-n3c(=O)n(C)c(=S)n(C)c3=O)c(F)cc2Cl)CC1 [Compound I-14]
Herbicidal efficacy Velvetleaf 3 WAT ([2]; dosage 1 gAI/ha): 10
Herbicidal efficacy Velvetleaf 3 WAT ([2]; dosage 2 gAI/ha): 10
Herbicidal efficacy Waterhemp 1 WAT ([1]; dosage 8 gAI/ha): 9
Herbicidal efficacy Waterhemp 1 WAT ([1]; dosage 16 gAI/ha): 9
Herbicidal efficacy Velvetleaf 1 WAT (velvetleaf; dosage 8 gAI/ha): 10
Herbicidal efficacy Velvetleaf 1 WAT (velvetleaf; dosage 16 gAI/ha): 10
Phytotoxicity Corn 1 WAT (corn (Zea mays)): 1
